Assay results as given in paper PMC8145938, “Triphenilphosphonium Analogs of Chloramphenicol as Dual-Acting Antimicrobial and Antiproliferating Agents” (Antibiotics, 2021).
In brackets after ≈: the same amount, converted by molar mass.

What was measured:
E. coli 70S ribosomes = test: competition-binding assay with BODIPY-ERY (fluorescence anisotropy); conditions: for Kd: displacement of BODIPY-ERY from E. coli 70S ribosomes, read-out: apparent dissociation constant (KDapp)
From the text: All new semi-synthetic CAM-Cn-TPP compounds were expected to bind and act on bacterial ribosomes by inhibiting protein synthesis, which is similar to CAM-C4-TPP and the PTC-targeting parent antibiotic CHL. To assess the affinity of CAM-C10-TPP and CAM-C14-TPP for the bacterial 70S ribosome (Figure 2A), a competition-binding assay exploiting BODIPY-labeled erythromycin (BODIPY-ERY) was used. […] It is likely that in the case of CAM-C14-TPP, the linker may be too long, preventing the optimal positioning of the TPP moiety in the NPET. Thus, CAM-C10-TPP and CAM-C14-TPP bind to the bacterial ribosome. However, their affinity strongly depends on the length of the linker connecting the two […]. Among the three CAM-Cn-TPPs, the C10-linker was optimal in terms of its ability to bind to the 70S ribosome.
The binding affinity of CAM-Cn-TPP to E. coli ribosomes was analyzed by a competition-binding assay using the fluorescently-labeled BODIPY-ERY, as described before. BODIPY-Ery (16 nM) was incubated with the ribosomes (50 nM) in the buffer containing 20 mM HEPES-KOH (pH 7.5), 50 mM NH4Cl, 10 mM Mg(CH3COO)2, 4 mM mercaptoethanol, and 0.05% Tween-20 for 30 min at 25 °C. Solutions of CHL, CAM-Cn-TPP, and CnTPP in different concentration ranges were added to the formed complex. The mixture was incubated for 2 h, until an equilibrium was reached, and the values of fluorescence anisotropy were measured by VICTOR X5 Multilabel Plate Reader (Perkin Elmer, Waltham, MA, USA). The dissociation constants were calculated based on the assumption of the equilibrium competitive binding of two ligands at a single binding site, as described in [70].

[1] = tested on: ribosome stalling on trpL mRNA in a cell-free translation system; test: toeprinting (primer extension inhibition) assay on trpL mRNA; assay type: biochemical; conditions: trpL mRNA template, 30 μM compound
From the text: To investigate the mechanism of action of CAM-C10-TPP and CAM-C14-TPP in the translation process, a primer extension inhibition assay (toeprinting) was used. This method allows for the unambiguous identification of drug-induced ribosome stalling sites along the mRNA, with single-nucleotide precision. This technique is also used to determine the context-specificity of antibiotic action. For this experiment, trpL mRNAs were chosen as the template, as in the pDualrep2 reporter system. […] Compared to the results obtained previously for CAM-C4-TPP using rst1 and rst2 mRNA templates, more unambiguous results were obtained using a trpL mRNA template. The main drug-induced ribosome stalling sites are different for CHL and CAM-Cn-TPP, and there are also CAM-Cn-TPP-specific stalling positions.
The toeprinting assay was carried out using trpL mRNA as a template, as described in [73], and the reactions were preincubated for 5 min with 30 μM of the tested compound.

E. coli ∆tolC-CAT = test: MIC determination, broth microdilution; assay type: cell-based; conditions: Escherichia coli
Method: (§1) E. coli ∆tolC CHL-resistant strain harboring plasmid encoding for chloramphenicol acetyltransferase (cat) (pCA24N-LacZ) and the control E. coli ∆tolC strain was used to evaluate the inhibitory effect of the compounds. CHL-resistant strains of B. subtilis pHT01-cat and B. subtilis pHT01-cfr were prepared by means of a transformation of a B. subtilis 168 strain with plasmids harboring the cat and cfr genes (chloramphenicol-florfenicol resistance) gene. The cfr gene encodes for the methyltransferase, which catalyzes the methylation of […] in the 23S rRNA and causes resistance to a variety of ribosome-targeting antibiotics that bind in the A site of the bacterial ribosome.
(§2) A standard laboratory strain of E. coli JW5503, with the deletion of the tolC gene, referred to here as the ∆tolC strain, was used to obtain the ∆tolC pCA24N-LacZ strain by means of transformation with the plasmid pCA24N-LacZ-harboring chloramphenicol acetyltransferase (cat) gene.
(§3) The MICs for CAM-Cn-TPP and Cn-TPP were determined by Mueller-Hinton broth microdilution, as recommended by CLSI in the Methods for Dilution Antimicrobial Susceptibility Tests for Bacteria that Grow Aerobically, Approved Standard, 9th ed., CLSI document M07-A9, using in-house-prepared panels. The compounds were diluted in a 96-well microtiter plate to final concentrations ranging from 0.5 to 360 μM in a 250-µL aliquot of the bacterial suspension, followed by incubation at 37 °C or 30 °C for 18 h. […] The bacterial growth was observed visually alongside OD measurements. The experiments were carried out in triplicate.

E. coli ∆tolC = test: MIC determination, broth microdilution; assay type: cell-based; conditions: Escherichia coli
Method: as §1, §2, §3

HEK293T = test: MTT assay growth inhibition; assay type: cell-based; conditions: Homo sapiens, HEK-293T, 72 h, read-out: 50% growth inhibition concentration (GI50)
Method: (§4) The cytotoxicity of the tested substances was tested using the MTT (3-(4,5-dimethylthiazol-2-yl)-2,5-diphenyltetrazolium bromide) assay, with some modifications, and 2500 cells per well for the MCF7, HEK293T, and A549 cell lines or 4000 cells per well for the VA-13 cell line were plated in 135 µL of DMEM-F12 media (Gibco, Waltham, MA, USA) in a 96-well plate and incubated in the 5% CO2 incubator for first 16 h, without treatment. Then, 15 µL of media-DMSO solutions of the tested substances was added to the cells (the final DMSO concentrations in the media were 1% or less) and treated cells for 72 h with 25 nM–50 µM (eight dilutions) of our substances (triplicate each), and serial DMSO dilutions and doxorubicin were used as controls. The MTT reagent (Paneco LLC, Moscow, Russia) was then added to cells to a final concentration of 0.5 g/L (10× stock solution in PBS was used) and incubated for 2.5 h at 37 °C in the incubator under an atmosphere of 5% CO2. The MTT solution was then discarded, and 140 µL of DMSO (PharmaMed LLC, Krasnodarsky Krai, Russia) was added. The plates were swayed on a shaker (60 rpm) to dissolve the formazan. The absorbance was measured using a microplate reader (VICTOR X5 Light Plate Reader, PerkinElmer, Waltham, MA, USA) at a wavelength of 565 nm (in order to measure formazan concentration). The results were used to construct a dose-response graph and to estimate the CC50 value.

MCF7 = test: MTT assay growth inhibition; assay type: cell-based; conditions: Homo sapiens, 72 h, read-out: 50% growth inhibition concentration (GI50)
Method: as §4

VA13 = test: MTT assay growth inhibition; assay type: cell-based; conditions: VA-13, 72 h, read-out: 50% growth inhibition concentration (GI50)
Method: as §4

| Structure (SMILES) | Kd (E. coli 70S ribosomes) | drug-induced ribosome stalling site [1] | MIC (E. coli ∆tolC-CAT) | MIC (E. coli ∆tolC) | GI50 (HEK293T) | GI50 (MCF7) | GI50 (VA13) | lower affinity to the 70S ribosome compared to CHL (E. coli 70S ribosomes; ratio of KDapp) | lower affinity to the 70S ribosome compared to other CAM-Cn-TPPs (E. coli 70S ribosomes; ratio of KDapp) | greater affinity to the ribosome compared to CAM-C4-TPP (E. coli 70S ribosomes; ratio of KDapp) | greater affinity to the ribosome compared to the parent CHL (E. coli 70S ribosomes; ratio of KDapp) |
| --- | --- | --- | --- | --- | --- | --- | --- | --- | --- | --- | --- |
| O=C(N[C@H](CO)[C@H](O)c1ccc([N+](=O)[O-])cc1)C(Cl)Cl [CHL, chloramphenicol] | 2.8 ± 0.4 µM | stalls ribosomes at the Ile4 codon | > 360 µM | 2.8 µM (≈ 0.905 µg/mL) | > 50 µM | > 50 µM | > 50 µM | – | – | – | – |
| O=C(CCCCCCCCCC[P+](c1ccccc1)(c1ccccc1)c1ccccc1)NCCCC(=O)N[C@H](CO)[C@H](O)c1ccc([N+](=O)[O-])cc1 [CAM-C14-TPP, N-[(1R,2R)-1,3-dihydroxy-1-(4-nitrophenyl)propan-2-yl]-4-(triphenyl)phosphoniumundecanamidobutamide bromide] | 36 ± 9 µM | blocked the ribosome progression at Val6 (Figure 2D, red arrowhead) and slightly blocked it at Ile4 | 12.5 µM | 12.5 µM | 3.6 ± 0.5 µM | 5.8 ± 0.8 µM | 5.2 ± 0.9 µM | ~ 13 fold | 60-90 fold | – | – |
| O=C(CCCCCCCCCC[P+](c1ccccc1)(c1ccccc1)c1ccccc1)N[C@H](CO)[C@H](O)c1ccc([N+](=O)[O-])cc1 [CAM-C10-TPP, (N-{[(1R,2R)-1,3-dihydroxy-1-(4-nitrophenyl)propan-2-yl]amino}-11-oxoundecyl)(triphenyl)phosphonium bromide] | 0.4 ± 0.04 µM | blocked the ribosome progression at Val6 (Figure 2D, red arrowhead) and slightly blocked it at Ile4 | 25 µM | 3 µM | 0.62 ± 0.04 µM | 1 ± 0.1 µM | 2.8 ± 0.5 µM | – | – | ~ 1.5 fold | ~ 7 fold |
